Measured values as given in ChEMBL document CHEMBL5385930, “Synthesis, Structure-Activity Relationship Study, Bioactivity, and Nephrotoxicity Evaluation of the Proposed Structure of the Cyclic Lipodepsipeptide Brevicidine B” (J Nat Prod, 2024).
Values after ≈ are worked out from the molar mass of the structure shown. Positions of bridges follow the written chain, without caps; N, C: chain ends. Non-standard residues stand in square brackets, D forms with d. Residues, ends and D or L forms follow the SMILES beside them. ξ: configuration not given here. *: point of attachment. Hexanoyl(4ξ-Me) = CCC(C)CCC(=O)*; dOrn = NCCC[C@@H](N)C(=O)O; Orn = NCCC[C@H](N)C(=O)O

What was measured:
[1] = system: Acinetobacter baumannii; test: Antibacterial activity against multidrug resistant Acinetobacter baumannii AB5075 assessed as reduction in bacterial growth by microbroth dilution assay; format: functional
[2] = system: Pseudomonas aeruginosa; test: Antibacterial activity against Pseudomonas aeruginosa ATCC 27853 assessed as reduction in bacterial growth by microbroth dilution assay; format: functional
[3] = system: Enterococcus faecalis; test: Antibacterial activity against vancomycin resistant Enterococcus faecalis V583 assessed as reduction in bacterial growth by microbroth dilution assay; format: functional
[4] = system: Acinetobacter baumannii; test: Antibacterial activity against Acinetobacter baumannii ATCC 19606 assessed as reduction in bacterial growth by microbroth dilution assay; format: functional
[5] = system: Staphylococcus aureus; test: Antibacterial activity against methicillin-resistant Staphylococcus aureus […] assessed as reduction in bacterial growth by microbroth dilution assay; format: functional
[6] = system: Klebsiella pneumoniae; test: Antibacterial activity against Klebsiella pneumoniae ATCC 700603 assessed as reduction in bacterial growth by microbroth dilution assay; format: functional
[7] = system: Escherichia coli; test: Antibacterial activity against Escherichia coli ATCC 25922 assessed as reduction in bacterial growth by microbroth dilution assay; format: functional
[8] = system: Klebsiella pneumoniae; test: Antibacterial activity against pandrug-resistant Klebsiella pneumoniae MS6671 assessed as reduction in bacterial growth by microbroth dilution assay; format: functional
[9] = system: Klebsiella pneumoniae; test: Antibacterial activity against Klebsiella pneumoniae ATCC 33495 assessed as reduction in bacterial growth by microbroth dilution assay; format: functional
[10] = system: Escherichia coli; test: Antibacterial activity against multidrug resistant Escherichia coli MS834 harbouring mcr-1 assessed as reduction in bacterial growth by microbroth dilution assay; format: functional
[11] = system: Staphylococcus aureus; test: Antibacterial activity against Staphylococcus aureus ATCC 25923 assessed as reduction in bacterial growth by microbroth dilution assay; format: functional
[12] = system: Staphylococcus aureus; test: Antibacterial activity against methicillin-resistant Staphylococcus aureus NCTC1044 assessed as reduction in bacterial growth by microbroth dilution assay; format: functional
[13] = system: Staphylococcus aureus; test: Antibacterial activity against methicillin-resistant Staphylococcus aureus RA120 assessed as reduction in bacterial growth by microbroth dilution assay; format: functional
[14] = system: Staphylococcus aureus; test: Antibacterial activity against methicillin-resistant Staphylococcus aureus EMRSA-15 assessed as reduction in bacterial growth by microbroth dilution assay; format: functional
[15] = Nephrotoxicity in human Kidney organoid assessed as at 100 uM measured after 48 hrs by bright field imaging analysis; format: toxicity, tissue-based
[16] = Nephrotoxicity in human Kidney organoid assessed as at 300 uM measured after 48 hrs by bright field imaging analysis; format: toxicity, tissue-based
[17] = Nephrotoxicity in human Kidney organoid assessed as deterioration of renal tubule measured after 48 hrs by bright field imaging analysis; format: toxicity, tissue-based; settings: dose 100-1000 µM

Molecule	MIC [1]	MIC [2]	MIC [3]	MIC [4]	MIC [5]	MIC [6]	MIC [7]	MIC [8]	MIC [9]	MIC [10]	MIC [11]	MIC [12]	MIC [13]	MIC [14]	Activity [15]	Activity [16]	Activity [17]
CCC(C)CCC(=O)N[C@H](CC(N)=O)C(=O)N[C@H](Cc1c[nH]cn1)C(=O)N[C@H](Cc1c[nH]c2ccccc12)C(=O)N[C@H](CCCN)C(=O)N[C@@H](CCCN)C(=O)NCC(=O)N[C@H](CCCN)C(=O)N[C@@H](Cc1c[nH]c2ccccc12)C(=O)N[C@@H]1C(=O)N[C@@H]([C@@H](C)CC)C(=O)NCC(=O)N[C@@H](CO)C(=O)O[C@@H]1C (some centres undefined)	> 32 mg/L	> 32 mg/L	> 32 mg/L	> 32 mg/L	> 32 mg/L	> 32 mg/L	> 32 mg/L	> 32 mg/L	> 32 mg/L	> 32 mg/L	> 32 mg/L	–	–	–	–	–	–
CC1(C)S[C@@H]2[C@H](NC(=O)[C@H](N)c3ccc(O)cc3)C(=O)N2[C@H]1C(=O)O [AMOXICILLIN]	–	–	0.5 mg/L (≈ 1.37 µM)	–	> 32 mg/L	–	–	–	–	–	0.25 mg/L (≈ 0.684 µM)	32 mg/L (≈ 87.6 µM)	> 32 mg/L	> 32 mg/L	–	–	–
CCC(C)CCC(=O)N[C@H](CC(N)=O)C(=O)N[C@H](Cc1ccccc1)C(=O)N[C@H](Cc1c[nH]c2ccccc12)C(=O)N[C@H](CCCN)C(=O)N[C@@H](CCCN)C(=O)NCC(=O)N[C@H](CCCN)C(=O)N[C@@H](Cc1c[nH]c2ccccc12)C(=O)N[C@@H]1C(=O)N[C@@H]([C@@H](C)CC)C(=O)NCC(=O)N[C@@H](CO)C(=O)O[C@@H]1C (some centres undefined)	16 mg/L (≈ 10.6 µM)	8 mg/L (≈ 5.32 µM)	> 32 mg/L	16 mg/L (≈ 10.6 µM)	> 32 mg/L	16 mg/L (≈ 10.6 µM)	4 mg/L (≈ 2.66 µM)	32 mg/L (≈ 21.3 µM)	4 mg/L (≈ 2.66 µM)	8 mg/L (≈ 5.32 µM)	> 32 mg/L	> 32 mg/L	> 32 mg/L	> 32 mg/L	Non-Toxic	Toxic	Dose-Dependent Effect
CCC(C)CCC(=O)N[C@H](CC(N)=O)C(=O)N[C@H](Cc1ccc(O)cc1)C(=O)N[C@H](Cc1c[nH]c2ccccc12)C(=O)N[C@H](CCCN)C(=O)N[C@@H](CCCN)C(=O)NCC(=O)N[C@H](CCCN)C(=O)N[C@@H](Cc1c[nH]c2ccccc12)C(=O)N[C@@H]1C(=O)N[C@@H]([C@@H](C)CC)C(=O)NCC(=O)N[C@@H](CO)C(=O)O[C@@H]1C (some centres undefined) ({Hexanoyl(4ξ-Me)}-[dN][dY][dW][dOrn][Orn]G[dOrn]WTIGS; ester 9-C)	16 mg/L (≈ 10.5 µM)	4 mg/L (≈ 2.63 µM)	> 32 mg/L	16 mg/L (≈ 10.5 µM)	> 32 mg/L	8 mg/L (≈ 5.26 µM)	4 mg/L (≈ 2.63 µM)	16 mg/L (≈ 10.5 µM)	2 mg/L (≈ 1.32 µM)	4 mg/L (≈ 2.63 µM)	> 32 mg/L	–	–	–	Non-Toxic	Toxic	Dose-Dependent Effect
C[C@@H](O)[C@H]1C(=O)N2C(C(=O)O)=C(S[C@@H]3CN[C@H](C(=O)N(C)C)C3)[C@H](C)[C@H]12 [MEROPENEM]	32 mg/L (≈ 83.4 µM)	0.25 mg/L (≈ 0.652 µM)	–	0.5 mg/L (≈ 1.3 µM)	–	0.062 mg/L (≈ 0.162 µM)	0.031 mg/L (≈ 0.0808 µM)	32 mg/L (≈ 83.4 µM)	0.062 mg/L (≈ 0.162 µM)	0.062 mg/L (≈ 0.162 µM)	–	–	–	–	–	–	–
POLYMYXIN B [listing 1 of 2 here]	–	–	–	–	–	–	–	–	–	–	–	–	–	–	–	Toxic	Dose-Dependent Effect
CCC(C)CCC(=O)N[C@H](CC(N)=O)C(=O)N[C@H](Cc1c[nH]c2ccccc12)C(=O)N[C@H](Cc1c[nH]c2ccccc12)C(=O)N[C@H](CCCN)C(=O)N[C@@H](CCCN)C(=O)NCC(=O)N[C@H](CCCN)C(=O)N[C@@H](Cc1c[nH]c2ccccc12)C(=O)N[C@@H]1C(=O)N[C@@H]([C@@H](C)CC)C(=O)NCC(=O)N[C@@H](CO)C(=O)O[C@@H]1C (some centres undefined) ({Hexanoyl(4ξ-Me)}-[dN][dW][dW][dOrn][Orn]G[dOrn]WTIGS; ester 9-C)	32 mg/L (≈ 20.7 µM)	32 mg/L (≈ 20.7 µM)	> 32 mg/L	> 32 mg/L	> 32 mg/L	32 mg/L (≈ 20.7 µM)	32 mg/L (≈ 20.7 µM)	> 32 mg/L	16 mg/L (≈ 10.4 µM)	32 mg/L (≈ 20.7 µM)	> 32 mg/L	–	–	–	–	–	–
POLYMYXIN B [listing 2 of 2 here]	0.5 mg/L	1 mg/L	–	0.5 mg/L	–	0.25 mg/L	0.125 mg/L	32 mg/L	0.5 mg/L	4 mg/L	–	–	–	–	–	–	–
Cc1onc(-c2ccccc2)c1C(=O)N[C@@H]1C(=O)N2[C@@H]1SC(C)(C)[C@@H]2C(=O)O [OXACILLIN]	–	–	–	–	128 mg/L (≈ 319 µM)	–	–	–	–	–	–	64 mg/L (≈ 159 µM)	64 mg/L (≈ 159 µM)	64 mg/L (≈ 159 µM)	–	–	–
COLISTIN	1 mg/L	1 mg/L	–	0.5 mg/L	–	0.25 mg/L	0.125 mg/L	32 mg/L	0.25 mg/L	4 mg/L	–	–	–	–	–	–	–
CCC(C)CCC(=O)N[C@H](CC(N)=O)C(=O)N[C@@H](Cc1ccc(Br)cc1)C(=O)N[C@H](Cc1c[nH]c2ccccc12)C(=O)N[C@H](CCCN)C(=O)N[C@@H](CCCN)C(=O)NCC(=O)N[C@H](CCCN)C(=O)N[C@@H](Cc1c[nH]c2ccccc12)C(=O)N[C@@H]1C(=O)N[C@@H]([C@@H](C)CC)C(=O)NCC(=O)N[C@@H](CO)C(=O)O[C@@H]1C (some centres undefined)	> 32 mg/L	> 32 mg/L	> 32 mg/L	> 32 mg/L	> 32 mg/L	> 32 mg/L	32 mg/L (≈ 20.2 µM)	> 32 mg/L	> 32 mg/L	> 32 mg/L	> 32 mg/L	–	–	–	–	–	–
CCC(C)CCC(=O)N[C@H](CC(N)=O)C(=O)N[C@H](C(=O)N[C@H](Cc1c[nH]c2ccccc12)C(=O)N[C@H](CCCN)C(=O)N[C@@H](CCCN)C(=O)NCC(=O)N[C@H](CCCN)C(=O)N[C@@H](Cc1c[nH]c2ccccc12)C(=O)N[C@@H]1C(=O)N[C@@H]([C@@H](C)CC)C(=O)NCC(=O)N[C@@H](CO)C(=O)O[C@@H]1C)C(c1ccccc1)c1ccccc1 (some centres undefined)	32 mg/L (≈ 20.3 µM)	> 32 mg/L	> 32 mg/L	32 mg/L (≈ 20.3 µM)	> 32 mg/L	> 32 mg/L	32 mg/L (≈ 20.3 µM)	> 32 mg/L	32 mg/L (≈ 20.3 µM)	16 mg/L (≈ 10.1 µM)	> 32 mg/L	–	–	–	–	–	–
CN[C@H](CC(C)C)C(=O)N[C@H]1C(=O)N[C@@H](CC(N)=O)C(=O)N[C@H]2C(=O)N[C@H]3C(=O)N[C@H](C(=O)N[C@H](C(=O)O)c4cc(O)cc(O)c4-c4cc3ccc4O)[C@H](O)c3ccc(c(Cl)c3)Oc3cc2cc(c3O[C@@H]2O[C@H](CO)[C@@H](O)[C@H](O)[C@H]2O[C@H]2C[C@](C)(N)[C@H](O)[C@H](C)O2)Oc2ccc(cc2Cl)[C@H]1O [VANCOMYCIN]	–	–	32 mg/L (≈ 22.1 µM)	–	–	–	–	–	–	–	–	–	–	–	–	–	–
CCC(C)CCC(=O)N[C@H](CC(N)=O)C(=O)N[C@H](CCCCN)C(=O)N[C@H](Cc1c[nH]c2ccccc12)C(=O)N[C@H](CCCN)C(=O)N[C@@H](CCCN)C(=O)NCC(=O)N[C@H](CCCN)C(=O)N[C@@H](Cc1c[nH]c2ccccc12)C(=O)N[C@@H]1C(=O)N[C@@H]([C@@H](C)CC)C(=O)NCC(=O)N[C@@H](CO)C(=O)O[C@@H]1C (some centres undefined)	> 32 mg/L	16 mg/L (≈ 10.8 µM)	> 32 mg/L	> 32 mg/L	> 32 mg/L	> 32 mg/L	> 32 mg/L	> 32 mg/L	> 32 mg/L	> 32 mg/L	> 32 mg/L	–	–	–	–	–	–
CCC(C)CCC(=O)N[C@H](CC(N)=O)C(=O)N[C@@H](Cc1ccccc1)C(=O)N[C@H](Cc1c[nH]c2ccccc12)C(=O)N[C@H](CCCN)C(=O)N[C@@H](CCCN)C(=O)NCC(=O)N[C@H](CCCN)C(=O)N[C@@H](Cc1c[nH]c2ccccc12)C(=O)N[C@@H]1C(=O)N[C@@H]([C@@H](C)CC)C(=O)NCC(=O)N[C@@H](CO)C(=O)O[C@@H]1C (some centres undefined)	> 32 mg/L	> 32 mg/L	> 32 mg/L	> 32 mg/L	> 32 mg/L	> 32 mg/L	> 32 mg/L	> 32 mg/L	> 32 mg/L	> 32 mg/L	> 32 mg/L	–	–	–	–	–	–
